For assay [1], the target named is T1, recombinant GST-MDM2 (Homo sapiens, UniProt Q00987).
T1 construct: GST (N)
Nature of the assay: In vitro ubiquitination assay of p53 performed by recombinant GST-MDM2. It is filed as biochemical. The text has this:
(§1) Further experiments have been performed to define the role of peptide 3 composition in its molecular and biological activity. […] Supporting these new experimental data about the importance of Isoleucine 489 and Phenylalanine 488, molecular dynamic simulations have shown that these residues engage in specific hydrophobic and aromatic interactions with MDM2 (FIG. 11). In particular, Isoleucine 489 is harbored in a hydrophobic cleft composed of Alanine 434, Isoleucine 435 and Leucine 458 of MDM2 protein. Likewise, Phenylalanine 488 forms aromatic interactions with a Histidine residue (HID-457) of MDM2 protein.

The test system of assay [2] is HCT116 wt and p53−/− cells. As to the kind of experiment: TUNEL assay of apoptosis in cells transfected with FITC tagged peptides. The following applies: among transfected (green) cells. Format: cell-based. On the procedure: In order to specifically detect apoptotic cells, TUNEL assay was carried out in HCT116 wt and p53−/− cells transfected with FITC tagged peptides. Percentage of apoptotic cells was evaluated specifically among the transfected cells (green population).
as §1

Assay [3] concerns the target T2, MDM4/MDM2 complex (Homo sapiens, UniProt O15151+Q00987).
T2 construct: immunoprecipitation of MDM4 has been carried out on cell lysates; endogenous in cells; host or cells: HCT116 wt and HCT116 p53-/- colon carcinoma cells
Nature of the assay: Immunoprecipitation / western blot of MDM4/MDM2 complex after peptide transfection in HCT116 cells. It is filed as cell-based. The following applies: HCT116 wild type and p53−/−. The source says:
Transient transfection of peptides has been carried out in HCT116 wt and p53−/− colon carcinoma cell lines and the immunoprecipitation of MDM4 has been carried out on cell lysates in order to detect the presence of MDM2 within the immunocomplex, by western blot analysis.
Transient transfection of peptides has been carried out in HCT116 wt and p53−/− colon carcinoma cell lines and the immunoprecipitation of MDM4 has been performed on cell lysates in order to detect the presence of MDM2 within the immunocomplex by western blot analysis.
Cells have been lysed using Saito lysis modified reagent (50 mM Tris-HCl, pH 7.4, 0.15 M NaCl, 0.5% Triton-X100, 5 mM EDTA). […]
(§2) It has been investigated whether peptides were able to enter the cell simply by addition thereof at given concentration (5 μM) to cell culture medium and analyzing for the presence thereof by confocal and fluorescence microscopy, each peptide being labeled with green fluorophore (FAM). It has been observed that peptides were detected in cells only after transfection by liposomes. Successively, the ability of peptides to disrupt the binding by MDM4 or MDM2 immunoprecipitation after peptide transfection in HCT116 cancer cell line, and detection of presence of corresponding partner in immunocomplex by western blot assay have been evaluated. […]
(In general: In western blotting, separated proteins are transferred to a membrane and probed.)

For assay [4], the target named is T3, p53/MDM4 binding (Homo sapiens, UniProt O15151).
T3 construct: MDM4 or MDM2 immunoprecipitation after peptide transfection in HCT116 cancer cell line; endogenous in cells; host or cells: HCT116 wt (p53+/+) colon carcinoma cells
As to the kind of experiment: Immunoprecipitation / western blot of p53 binding to MDM4 after peptide transfection in HCT116 cells. Format: cell-based. On the procedure: Cells have been lysed using Saito lysis modified reagent (50 mM Tris-HCl, pH 7.4, 0.15 M NaCl, 0.5% Triton-X100, 5 mM EDTA). For p53 immunoprecipitation and BCL2 and MDM4 analysis EBC modified solution has been used (50 mM Tris-HCl, pH 7.4, 0.12 M NaCl, 0.4% NP-40, 1 mM EDTA, 1 Mm β-mercaptoethanol).
400 μg of total protein extract has been incubated with protein G (Invitrogen) for 2 hours under stirring at 4° C. in order not specific binding of proteins with said substrate can occur. Afterwards the cellular extract has been centrifuged, not specific complexes removed with precipitate and supernatant has been incubated for 16 hours with specific antibody. Successively, protein G has been added and incubated for 2 hour at 4° C. […]
as §2

Assay [5] relates to HCT116 wt cells. Nature of the assay: Cell death by cytofluorimetric analysis (Propidium Iodide) of cells transfected with FITC tagged peptides. Format: cell-based. The following applies: for induction of apoptotic response / cellular apoptosis: HCT116 cells transfected with peptide. On the procedure:
(§3) Cytofluorimetric analysis was carried out on HCT116 wt and p53−/− cells transfected with FITC tagged peptides and stained with Propidium Iodide (PI). Percentage of dead cells was evaluated specifically among the transfected cells (green population).
(§4) Cytofluorimetric analysis was performed on HCT116 wt and p53−/− cells transfected with FITC tagged peptides and stained with Propidium Iodide (PI). Percentage of dead cells was evaluated specifically among the transfected cells (green population).
(§5) It has been investigated whether peptides were able to enter the cell simply by addition thereof at given concentration (5 μM) to cell culture medium and analyzing for the presence thereof by confocal and fluorescence microscopy, each peptide being labeled with green fluorophore (FAM). It has been observed that peptides were detected in cells only after transfection by liposomes. Successively, the ability of peptides to disrupt the binding by MDM4 or MDM2 immunoprecipitation after peptide transfection in HCT116 cancer cell line, and detection of presence of corresponding partner in immunocomplex by western blot assay have been evaluated. Two HCT116 wild type and HCT116 p53−/− syngeneic cell lines have been used in order to understand also observed effect dependence on the presence of p53.

In assay [6] the test system is HCT116 p53−/− cells. Described as above. It is filed as cell-based. The following applies: HCT116 p53−/− compared with wt. On the procedure: as §3, §4, §5

*: point of attachment. FITC = O=C1OC2(c3ccc(O)cc3Oc3cc(O)ccc32)c2ccc(NC(=S)*)cc21; Ahx = NCCCCCC(=O)O

T1 sequence (Q00987 whole entry): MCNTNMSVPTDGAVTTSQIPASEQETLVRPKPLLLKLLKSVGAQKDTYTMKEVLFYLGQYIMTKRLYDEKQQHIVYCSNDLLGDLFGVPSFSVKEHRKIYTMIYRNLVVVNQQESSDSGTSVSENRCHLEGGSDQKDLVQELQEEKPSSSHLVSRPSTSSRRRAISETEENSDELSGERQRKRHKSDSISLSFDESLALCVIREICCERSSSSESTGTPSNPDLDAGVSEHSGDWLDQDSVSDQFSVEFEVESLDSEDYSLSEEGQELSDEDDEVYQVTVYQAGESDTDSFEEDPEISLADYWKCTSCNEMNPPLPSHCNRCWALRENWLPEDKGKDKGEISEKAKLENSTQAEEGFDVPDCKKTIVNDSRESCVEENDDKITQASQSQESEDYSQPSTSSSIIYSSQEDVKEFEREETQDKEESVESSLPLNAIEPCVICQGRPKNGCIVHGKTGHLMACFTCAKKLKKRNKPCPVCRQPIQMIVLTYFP
T2 sequence (O15151 whole entry): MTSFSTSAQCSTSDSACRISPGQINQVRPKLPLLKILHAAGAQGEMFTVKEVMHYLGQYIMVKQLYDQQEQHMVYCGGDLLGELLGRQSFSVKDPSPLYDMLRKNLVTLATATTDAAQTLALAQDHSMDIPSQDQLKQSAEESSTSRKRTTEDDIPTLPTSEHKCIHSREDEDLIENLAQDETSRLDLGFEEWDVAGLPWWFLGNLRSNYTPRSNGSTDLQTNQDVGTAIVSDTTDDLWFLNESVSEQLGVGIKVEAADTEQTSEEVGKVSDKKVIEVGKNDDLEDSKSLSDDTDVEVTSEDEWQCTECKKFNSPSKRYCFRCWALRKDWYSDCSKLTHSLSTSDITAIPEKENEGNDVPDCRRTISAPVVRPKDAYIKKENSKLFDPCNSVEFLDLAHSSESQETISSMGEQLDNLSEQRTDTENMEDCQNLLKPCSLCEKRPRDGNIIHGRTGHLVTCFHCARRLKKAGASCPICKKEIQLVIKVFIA
T2 sequence (Q00987 whole entry): as the sequence (Q00987 whole entry) above
T3 sequence (O15151 whole entry): as the sequence (O15151 whole entry) above
T3 sequence (P04637 whole entry partner): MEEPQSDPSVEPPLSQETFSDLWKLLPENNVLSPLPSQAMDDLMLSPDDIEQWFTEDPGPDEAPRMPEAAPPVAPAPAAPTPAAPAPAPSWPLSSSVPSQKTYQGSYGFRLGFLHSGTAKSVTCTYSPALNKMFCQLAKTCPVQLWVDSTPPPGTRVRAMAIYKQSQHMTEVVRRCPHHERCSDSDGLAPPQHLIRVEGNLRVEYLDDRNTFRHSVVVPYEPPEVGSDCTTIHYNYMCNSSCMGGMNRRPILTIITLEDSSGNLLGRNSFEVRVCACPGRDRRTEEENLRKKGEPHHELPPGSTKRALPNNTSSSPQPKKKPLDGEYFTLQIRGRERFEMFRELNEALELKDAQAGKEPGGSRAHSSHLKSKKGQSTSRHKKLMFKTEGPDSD

Take “AIKIFVKVLEIQ (peptide composed with the same aminoacids of SEQ ID NO3 but arranged in different order) [Peptide SC3B]”: the “inhibition of ubiquitination of p53” value in assay [1] is “ineffective”.
Take “KEIQLVIKVAEA (MDM4 sequence of the interaction domain between MDM4 and MDM2 from aa 479 to aa 490 of MDM4 in which FI in positions 10 and 11 of said sequence has been substituted with AE) [Peptide 3D, reference compound]”: in assay [1], the “inhibition of ubiquitination of p53” value is recorded as “completely ineffective”. For the same substance, the “induction of apoptosis (TUNEL)” value in assay [2] is “completely ineffective”.
Regarding “VQEAFKLIKIVI (peptide composed with the same aminoacids of SEQ ID NO3 but arranged in different order) [Peptide SC3A]”, in assay [1], the “inhibition of ubiquitination of p53” value is “ineffective”.
In the case of “FITC-Ahx-KEIQLVIKVFIA-CONH2 (HELM PEPTIDE1{[O=C1OC2(c3ccc(O)cc3Oc3cc(O)ccc32)c2ccc(NC(=S)[*:2])cc21].[O=C(CCCCCN[*:1])[*:2]].K.E.I.Q.L.V.I.K.V.F.I.A.[am]}$$$$V2.0; SMILES CC[C@H](C)[C@H](NC(=O)[C@H](Cc1ccccc1)NC(=O)[C@@H](NC(=O)[C@H](CCCCN)NC(=O)[C@@H](NC(=O)[C@@H](NC(=O)[C@H](CC(C)C)NC(=O)[C@H](CCC(N)=O)NC(=O)[C@@H](NC(=O)[C@H](CCC(=O)O)NC(=O)[C@H](CCCCN)NC(=O)CCCCCNC(=S)Nc1ccc2c(c1)C(=O)OC21c2ccc(O)cc2Oc2cc(O)ccc21)[C@@H](C)CC)C(C)C)[C@@H](C)CC)C(C)C)C(=O)N[C@@H](C)C(N)=O) [Peptide 3, FITC-Ahx tagged, C-terminal amide]”, in assay [1], the “inhibition of ubiquitination of p53” value is “inhibit the ubiquitinatin activity of MDM2 towards p53”. Besides, the “ability to dissociate MDM4/MDM2 complex” value in assay [3] is reported as “highly effective in dissociating said two molecules”. Moreover, the “induction of apoptosis (TUNEL)” value in assay [2] is recorded as “induce apoptosis”. Further, the “effect on binding of p53 to MDM4” value in assay [4] is listed as “does not dissociate p53 from MDM4”. For the same substance, the “induction of apoptotic response / cellular apoptosis” value in assay [5] is “highly effective in inducing cellular apoptosis”. Further, the “induced death in p53 lacking versus p53 harboring cells” value in assay [6] was “meaningfully lower in p53 lacking than harboring cells”.
Turning to {FITC-Ahx}-ESSLPLNAIEPS-NH2 [Peptide 1], in assay [3], the “ability to dissociate MDM4/MDM2 complex” value is “suitable to dissociate said two proteins”. In assay [4], the “effect on binding of p53 to MDM4” value was “able to preserve the binding of p53 to MDM4”. Besides, the “induction of apoptotic response / cellular apoptosis” value in assay [5] was “induce a significant apoptotic response”. For the same substance, in assay [5] (HCT116 p53+/+ cells), the “cell death response in comparison to the control Scramble peptide” value is on record as “significantly higher in comparison to the control Scramble peptide”.
